Test results from patent US10183011B2, “Anti-depression compounds” (Board of Regents of the University of Texas System, priority 2009, dated 2019).

Legend:
[1] = test system: newborn hippocampal neurons; test: 30 day BrdU pulse-chase survival assay of newborn hippocampal neurons, dose response; format: in vivo, mouse (C57 Bl/6); details: for increase in survival of newborn neurons: 5 mg/kg/day i.p. for 30 days; for neuroprotective efficacy (increase in survival of newborn neurons): 10 mg/kg/day i.p. for 30 days; for ceiling of efficacy (CoE), increase in survival: 20 or 40 mg/kg/day i.p. for 30 days
Description: FIG. 28. Neuroprotective efficacy of P7C3, P7C3A20 and Dimebon for newborn neurons in the adult hippocampus. Test compounds were evaluated by dose response assay for their ability to block normal apoptotic cell death of newborn neural precursor cells in the adult dentate gyrus. […] P7C3 is intermediate in both measures. 6 animals were tested per group. Dosing is expressed as total mg/day, and compounds were administered intraperitoneally in divided doses twice daily. Data are expressed as mean±SEM. Values for P7C3 and P7C3A20 were compared to those of vehicle (VEH), and values for Dimebon were compared to those of saline (SAL).
In order to more carefully compare the neuroprotective efficacy of these compounds in abetting hippocampal neurogenesis, we conducted dose-response studies in a 30 day BrdU pulse-chase survival assay (FIG. 28). Briefly, newborn cells were labeled with a single intraperitoneal (i.p.) injection of BrdU (150 mg/kg), followed by daily treatment with the three test compounds beginning the following day. After 30 days of compound administration, mice were transcardially perfused with 4% paraformaldehyde, brains were dissected, and immunohistochemical detection of BrdU followed by standard microscopic imaging and normalization for dentate gyrus volume was used to quantify the number of surviving cells.
Because both social activity and voluntary exercise enhance hippocampal neurogenesis, mice were individually housed without access to running wheels throughout the entire procedure, beginning one week prior to bromodeoxyuridine (BrdU, Sigma-Aldrich) labeling of newborn cells. Throughout the study, mice had ad libitum access to food and water. BrdU was injected intraperitoneally at 150 mg/kg i.p., and 24 hours later administration of test compounds or vehicle was initiated. P7C3 and P7C3A20 were dissolved in 5% dextrose (pH 7.0) with 2.5% DMSO and 10% Cremaphor EL (Sigma, C5135). Dimebon was dissolved in normal saline. Compounds were compared to their respective controls, and were tested at 2.5, 5, 10 and 20 mg/kg twice daily (i.p.) for 30 days. The injection site was alternated between right and left sides. Each group consisted of six 12-week-old adult male C57 Bl/6 mice. Animals were monitored daily for general health and weight loss. Cage changes were performed per routine scheduling. After 30 days of compound administration, mice were sacrificed by transcardial perfusion with 4% paraformaldehyde at pH 7.4, and their brains were processed for immunohistochemical detection of incorporated BrdU in the dentate gyrus. Dissected brains were immersed in 4% paraformaldehyde overnight at 4 degrees Celsius, then cryoprotected in sucrose before being sectioned with a Leica SM2000R sliding microtome coronally into […] thick free-floating sections. Unmasking of BrdU antigen was achieved through incubating tissue sections for two hours in 50% formamide/2×SSC at 65 degrees Celsius, followed by five minute wash in 2×SSC and subsequent incubation for thirty minutes in 2M HCl at 37 degrees Celsius. Sections were processed for immunohistochemical staining with mouse monoclonal anti-BrdU (1:100, Roche). Diaminobenzidine was used as a chromagen, and tissue was counter-stained with hematoxylin to aid in visualization of the neuroanatomy. Images were analyzed with a Nikon Eclipse 90i motorized research microscope with Plan Apo lenses coupled with Metamorph Image Acquisition software (Nikon). Quantification of all staining was done blind to treatment group. The number of BrdU+ cells in the entire dentate gyrus was quantified by counting BrdU+ cells within the dentate gyrus in every fifth section throughout the entire hippocampus and then normalizing for dentate gyrus volume.

[2] = test system: SNc dopaminergic neurons; test: MPTP-toxicity to SNc dopaminergic neurons, treatment started 24 hours after the last MPTP dose; format: in vivo, mouse (C57Bl/6); details: for dopaminergic axons in the striatum (TH staining): 20 mg/kg/day
Description: FIG. 29A and FIG. 29B. Neuroprotective efficacy of P7C3 and P7C3A20 from MPTP-toxicity to SNc dopaminergic neurons. FIG. 29A—Test compounds were evaluated by dose response assay for their ability to block MPTP-neurotoxicity in the SNc. […] VEH group contained 30 animals: 15 animals that received the P7C3A20/P7C3 vehicle, and 15 animals that received Dimebon vehicle (saline). […] Representative immunohistochemical pictures of TH-staining in the SNc are shown below the graph. Dosing is expressed as total mg/day, and was administered intraperitoneally in divided doses twice daily. Data are expressed as mean±SEM. […] P7C3A20 does so with greater effect, and Dimebon offers no protection. Striatal sections were obtained from the same mice used in FIG. 2, and compound treatment groups are from mice that received a dose of 20 mg/kg/d.
We compared the protective efficacy of our agents in the Tatton and Kish model of MPTP administration, which induces prolonged apoptotic death of SNc dopaminergic neurons lasting about 3 weeks after a short course of daily MPTP administration. Mice were treated daily for 5 days with 30 mg/kg/day free base MPTP. On the sixth day, 24 hours after receiving the fifth and final dose of MPTP, daily treatment with P7C3, P7C3A20, Dimebon or vehicle was initiated. […] Dose-response studies were conducted in which mice received twice daily doses of each compound (or vehicle) for the ensuing 21 days (FIG. 29A). […] At the end of the 21 day treatment period, mice were sacrificed by transcardial perfusion with 4% paraformaldehyde, and fixed brains were sectioned through the striatum and SNc at 30 μM intervals. Every fourth section (spaced 120 μM apart) was stained with antibodies specific to tyrosine hydroxylase (TH) (Abcam, rabbit anti-TH, 1:2500). The TH enzyme catalyzes the conversion of the amino acid L-tyrosine to L-3,4-dihydroxyphenylalanine (L-DOPA), which serves as the precursor for dopamine. TH staining thus provides a means to immunohistochemically identify dopaminergic neurons. By counting the number of TH+ cells in the SNc, we were able to assess the neuroprotective efficacy of the three chemicals following MPTP exposure. All microscopic analysis was performed by two investigators, blind to treatment group.
15 adult male C57Bl/6 mice were individually housed for one week and then injected daily for 5 days with 30 mg/kg/day (i.p.) free base MPTP (Sigma). On day 6, 24 hours after receiving the fifth and final dose of MPTP, daily treatment with P7C3, P7C3A20, Dimebon or vehicle was initiated. Mice were housed in disposable caging, and protective gear and precautions were implemented for handling MPTP in accordance with UT Southwestern Medical Center policy. Dose response studies were conducted in which mice received twice daily doses of each compound (or vehicle) by intraperitoneal injection for the following 21 days, after which mice were sacrificed by transcardial perfusion with 4% paraformaldehyde. Brains were dissected, fixed overnight in 4% paraformaldehyde, and cryoprotected in sucrose for freezing by standard procedures. Frozen brains were sectioned through the striatum and SNc at 30 uM intervals, and every fourth section (spaced 120 μM apart) was stained with antibodies directed against tyrosine hydroxylase (TH) (Abcam, rabbit anti-TH, 1:2500). Diaminobenzidine was used as a chromagen, and tissue was counter-stained with hematoxylin to aid in visualization of the neuroanatomy. Images were analyzed with a Nikon Eclipse 90i motorized research microscope with Plan Apo lenses coupled with Metamorph Image Acquisition software (Nikon). TH+ neurons were counted with Image J software (NIH) in every section by 2 blinded investigators and results were averaged and multiplied by the sectioning interval to determine the total number of TH+ neurons per SNc.

Compound	increase in survival of newborn neurons [1]	neuroprotective efficacy (increase in survival of newborn neurons) [1]	ceiling of efficacy (CoE), increase in survival [1]	dopaminergic axons in the striatum (TH staining) [2]	protection from MPTP ([2]; any dose)	activity in the MPTP protection assay ([2]; new analogs, 10 mice for each compound)	onset of efficacy, over VEH ([2]; 1 mg/kg/day for 21 days) [%]	number of dopaminergic neurons in the SNc relative to normal mice not exposed to MPTP ([2]; 20 mg/kg/day for 21 days)	enhanced survival of TH+ SNc neurons over VEH ([2]; 5 mg/kg/day for 21 days)	protection relative to vehicle ([2]; 20 mg/kg/day for 21 days) [%]
Cc1ccc2c(c1)c1c(n2CCc2ccc(C)nc2)CCN(C)C1 [Dimebon, 2,3,4,5-Tetrahydro-2,8-dimethyl-5-(2-(6-methyl-3-pyridyl)ethyl)-1H-pyrido(4,3-b)indole, reference compound]	neither P7C3 nor Dimebon exhibited any effect	15%	≈ 30%	offered no protection of dopaminergic axons in the striatum	failed to confer any measurable degree of protection from MPTP at any dose	–	–	–	–	–
OC(CNc1cccc2ccccc12)Cn1c2ccc(Cl)cc2c2cc(Cl)ccc21 (stereo not drawn) [Example P7C3-S184]	–	–	–	–	–	inactive in both in vivo assays	–	–	–	–
COc1cccc(NCC(F)Cn2c3ccc(Br)cc3c3cc(Br)ccc32)c1 (stereo not drawn) [Example P7C3A20, N-(3-(3,6-dibromo-9H-carbazol-9-yl)-2-fluoropropyl)-3-methoxyaniline]	~100%	about 175%	≈ 230%	almost completely blocked depletion of dopaminergic axons in the striatum	–	–	30	about 85%	–	–
OC(CNc1ccccc1)Cn1c2ccc(Br)cc2c2cc(Br)ccc21 (stereo not drawn) [Example P7C3]	neither P7C3 nor Dimebon exhibited any effect	65%	≈ 130%	qualitatively notable protection	–	–	–	–	about 40%	~60
